Measured values as given in patent US20110236397A1, “LIMITED PROTEOLYSIS OF CD2AP AND PROGRESSION OF RENAL DISEASE” (University of Miami, priority 2008, published 2011).
Residues, ends and D or L forms follow the SMILES beside them. *: point of attachment. Cbz = O=C(OCc1ccccc1)*; CH2F = FC*

Tests used:
[1] = test system: rat glomerulonephritis model; conditions: cited from earlier work
podocytes = conditions: in vivo; cited from earlier work
cathepsin L [2] = assay: Cathepsin L activity assay in glomerular extracts (fluorogenic substrate CV-(FR)2); format: biochemical, mouse; conditions: LPS treated mice, co-incubation
Procedure: Isolation and processing of glomeruli. Glomeruli were isolated from kidneys of 8-12 weeks old LPS- and PBS-treated (control) mice using a sequential sieve technique with mesh sizes of 180, 100, and 71 μm. The fraction collected from the 71-μm sieve was maintained for soup/pellet fractionation. Isolated glomeruli were homogenized in buffer containing 20 mM HEPES pH 7.5, 100 mM NaCl, 1 mM MgCl2, 1 mM PMSF, protease inhibitors (Roche), calpain inhibitor (Calbiochem), and E-64d (Calbiochem) using Dounce homogenizer. Subsequently, cytosol was centrifuged for 10 min at 4,600 g. Proteins were solubilized by 1% Triton X-100, 1 hour at 4° C., before it was spun at 70,000 g for 1 hour.
Cathepsin L activity assay. Subcellular sites of cathepsin L and cathepsin B activity in glomerular extracts were visualized by a fluorogenic substrate, CV—(FR)2, which emits light upon cleavage by cathepsin L or cathepsin B (Biomol).
To test the significance of this prediction, glomeruli were isolated from control mice and animals that were injected with low-dose lipopolysaccharide (LPS), a treatment causing high levels of cytosolic cathepsin L in podocytes. The tissue samples were further processed to obtain cytosolic and membrane-bound glomerular extracts (FIG. 1A). […]

cathepsin B = cathepsin B (Homo sapiens, UniProt P07858); conditions: cited from earlier work
cathepsin L [3] = assay: Cellular CatL cleavage assay: CD2AP-FLAG HEK293 cells co-transfected with cathepsin L constructs; format: cell-based; conditions: for cleavage of CD2AP into p32 by WT cathepsin L: WT cathepsin L (pre-pro and short form), co-incubation with inhibitor; for cleavage of CD2AP into p32 by cytosolic (short, CatL M1) cathepsin L: cytosolic cathepsin L alone, inhibitor added
Excerpt: FIG. 2A is a scan of a photograph showing a silver stained gel of FLAG-CD2AP after cleavage with CatL at various pH. FIG. 2B is a scan of a photograph showing an immunoblot of cleaved CD2AP fragments that are tagged with a N-terminal GFP. GFP-CD2AP is stable in the absence of CatL enzyme. Cleavage of CD2AP at pH 4.5 and 5.5 leads to complete digestion of the protein. At pH 7.0, CD2AP is cleaved into a stable 55 kD fragment (▪) as detected with an anti-GFP antibody. The same fragment is detected with the CD2AP antiserum which is raised against the SH3 domains of CD2AP (anti-N-CD2AP). The CD2AP antiserum also detects a weak band corresponding to a 44 kD fragment (▴, detected by the affinity of the antibody to the C-terminal SH3, anti-C-CD2AP). FIG. 2C is a schematic representation showing the match of cleavage fragments with predicted CatL cleavage site QPLGS. FIG. 2D is a blot showing that CatL cleaves CD2AP-FLAG yielding a 44 kD (▴) and a 32 kD ([…]) fragment. FIG. 2E is a schematic representation showing that both fragments have corresponding predictions in the amino acid sequence of CD2AP (QPLGS and LSAAE). FIG. 2F is a blot showing results from a cellular CatL cleavage assay: Wild type (WT) CatL (pre-pro CatL and short form) cleaves CD2AP in HEK293 cells. […] Short CatL (CatL M1) is sufficient to cleave CD2AP yielding a 32 kD fragment ([…]). This cleavage is abrogated by a specific CatL inhibitor. FIG. 2G is a blot showing that deletion of the CatL cleavage site LSAAE protects CD2AP from limited proteolysis into the 32 kD fragment ([…]).
Cell culture and transient transfection. Mouse podocytes were cultured as described previously (Mundel, P. et al. Exp. Cell Res. 236, 248-258 (1997)). HEK293 cells were maintained and transfected as previously reported (Reiser, J. et al. Nat. Genet. 37, 739-744 (2005)).
Next, it was investigated whether cytosolic cathepsin L in cells is sufficient to process CD2AP. CD2AP-FLAG expressing HEK293 cells were co-transfected with WT cathepsin L […] which generates cytosolic and lysosomal cathepsin L protein and a cathepsin L construct that contains a deletion of the first AUG site and thus encodes selectively for the cytosolic form of cathepsin L. The experiments were performed in the presence or absence of a specific cathepsin L inhibitor (FIG. 2F). WT cathepsin L led to cleavage of CD2AP yielding p32. […] More importantly, transfection of cytosolic cathepsin L alone was sufficient to cleave CD2AP resulting in the production of p32 (FIG. 2F). […] The stable p32 fragment was identified in the cleavage assays at neutral pH (FIG. 2A). In addition, this fragment was generated in HEK 293 cells using cytosolic cathepsin L. Therefore, this fragment was regarded as an end-product generated through cytosolic cathepsin L cleavage. […]

[4] = listed as specific CatL inhibitor

## CC(C)C[C@H](NC(=O)[C@H]1O[C@@H]1C(=O)O)C(=O)NCCCCN=C(N)N [E64]
[1]
  experimental proteinuria: can reduce experimental proteinuria
podocytes
  protection against proteinuria: safeguard against proteinuria

## COC(=O)[C@@H]1CC2=CC(=O)CC[C@]2(C)[C@@]23O[C@@H]2C[C@@]2(C)[C@@H](CC[C@@]24CCC(=O)O4)[C@H]13 [Epleronone]
podocytes
  protection against proteinuria: safeguard against proteinuria

## CCN(CC)CCCC(C)Nc1nc(C)cc(Nc2ccc3nc(C)cc(N)c3c2)n1 (centres unmarked) [NSC23766]
podocytes
  protection against proteinuria: safeguard against proteinuria

## O=C(NC(Cc1ccccc1)C(=O)NC(Cc1ccccc1)C(=O)CF)OCc1ccccc1 (stereo not drawn) [Z-FF-FMK] (Cbz-Phe-Phe-CH2F; configuration not given here)
Cathepsin L [2]
  inhibition of cathepsin L activity in cytosolic extract of glomeruli: could be inhibited
Cathepsin B
  inhibition of cathepsin B: does not inhibit cathepsin B
Cathepsin L [3]; [4]
  cleavage of CD2AP into p32 by WT cathepsin L: can be prevented
  cleavage of CD2AP into p32 by cytosolic (short, CatL M1) cathepsin L: abrogated
Cathepsin L [3]; listed as specific cathepsin L inhibitor
  cleavage of CD2AP into p32 by WT cathepsin L: could be prevented
Cathepsin L [3]; listed as cathepsin L inhibitor
  cleavage of CD2AP into p32 by cytosolic (short, CatL M1) cathepsin L: could be blocked

## CC(C)[C@@H]1NC(=O)[C@@H](Cc2ccccc2)NC(=O)[C@H](CC(=O)O)NC(=O)CNC(=O)[C@H](CCCN=C(N)N)NC1=O [cycloRGDfV]
podocytes
  protection against proteinuria: safeguard against proteinuria
